Target: T1, GPR40 of human origin (Homo sapiens, UniProt O14842)
T1 construct: expressed in transfected cells
Test: Agonist action on GPR40 of human origin (intracellular Ca2+ change)
Assay type: cell-based
Details: CHO cell strain stably expressing GPR40 of human origin; change in Ca2+ concentration, fluorescent calcium indicator
Method: Pharmacological Test Example 1: Agonist Action on GPR40 of Human Origin
A CHO cell strain stably expressing GPR40 of human origin was used to determine the agonist action of a subject compound. This cell strain was seeded in a clear bottom 96 well plate at 4×10^4 cells/100 pt/well. The cell strain iswas cultured in a CO2 incubator overnight using a Ham's F-12 medium containing a 10% fetal bovine serum, 100 U/mL penicillin, 0.1 mg/mL streptomycin, and 400 μg/mL Geneticin. Calcium 4 Assay Kit (Molecular Devices) was used as a fluorescent calcium indicator. One mL of 77 mg/mL probenecid (Invitrogen) was added to 100 mL of a calcium indicator solution to prepare a solution (loading solution) mixed with a 20 mM HEPES-containing Hanks' balanced salt solution (HBSS) in equal proportions. To the cells from which the culture solution is removed, 200 μl of the loading solution was added, and the cells were cultured in a CO2 incubator for 1 hour. The subject compound was diluted with a 20 mM HEPES-containing HBSS and was added to the cells by 50 μL, and the change in the Ca^2+ concentration was measured with an intracellular ion analyzer. The EC50 value of the subject compound was calculated using the dose-response curve of fluorescence intensity variation.

T1 sequence (O14842 whole entry): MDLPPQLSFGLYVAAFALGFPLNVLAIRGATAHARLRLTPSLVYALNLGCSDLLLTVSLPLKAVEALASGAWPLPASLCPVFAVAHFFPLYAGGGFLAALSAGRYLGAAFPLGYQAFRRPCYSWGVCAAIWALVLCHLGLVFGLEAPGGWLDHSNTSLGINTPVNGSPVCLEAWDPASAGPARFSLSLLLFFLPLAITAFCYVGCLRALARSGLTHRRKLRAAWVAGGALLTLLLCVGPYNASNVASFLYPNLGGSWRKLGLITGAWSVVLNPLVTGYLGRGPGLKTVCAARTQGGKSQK

| Structure (SMILES) | EC50 |
| --- | --- |
| COc1ccc(Cl)c(-c2cccc3c2CC[C@H]3Oc2ccc(-c3cc(O)n[s+]3[O-])cc2)c1 (stereo partly drawn) [Example 52, 5-(4-(((R)-4-(2-chloro-5-methoxyphenyl)-2,3-dihydro-1H-inden-1-yl)oxy)phenyl)-3-hydroxyisothiazole 1-oxide] | < 300 nM |
| COc1ccc(OC)c(-c2cccc3c2CC[C@H]3Oc2ccc(-c3cc(O)n[s+]3[O-])cc2)c1 (stereo partly drawn) [Example 54, 5-(4-(((R)-4-(2,5-dimethoxyphenyl)-2,3-dihydro-1H-inden-1-yl)oxy)phenyl)-3-hydroxyisothiazole 1-oxide] | < 300 nM |
| [O-][s+]1nc(O)cc1-c1ccc(O[C@@H]2CCc3c(-c4ccc(OCc5ccccc5)c(F)c4)cccc32)cc1 (stereo partly drawn) [Example 57, 5-(4-(((R)-4-(4-benzyloxy-3-fluorophenyl)-2,3-dihydro-1H-inden-1-yl)oxy)phenyl)-3-hydroxyisothiazole 1-oxide] | 300 to 3000 nM |
| CCOc1ccc(Cl)cc1-c1cccc2c1CC[C@H]2Oc1ccc(-c2cc(O)n[s+]2[O-])cc1 (stereo partly drawn) [Example 58, 5-(4-(((R)-4-(5-chloro-2-ethoxyphenyl)-2,3-dihydro-1H-inden-1-yl)oxy)phenyl)-3-hydroxyisothiazole 1-oxide] | < 300 nM |
| CCOc1ccc(-c2cccc3c2CC[C@H]3Oc2ccc(-c3cc(O)n[s+]3[O-])cc2)cc1Cl (stereo partly drawn) [Example 60, 5-(4-(((R)-4-(3-chloro-4-ethoxyphenyl)-2,3-dihydro-1H-inden-1-yl)oxy)phenyl)-3-hydroxyisothiazole 1-oxide] | < 300 nM |
| [O-][s+]1nc(O)cc1-c1ccc(O[C@@H]2CCc3c(-c4cc(F)ccc4OCc4ccccc4)cccc32)cc1 (stereo partly drawn) [Example 62, 5-(4-(((R)-4-(2-benzyloxy-5-fluorophenyl)-2,3-dihydro-1H-inden-1-yl)oxy)phenyl)-3-hydroxyisothiazole 1-oxide] | 300 to 3000 nM |
| Cc1ccc(-c2cccc3c2CC[C@H]3Oc2ccc(-c3cc(O)n[s+]3[O-])cc2)cn1 (stereo partly drawn) [Example 71, 5-(4-(((R)-4-(6-methylpyridin-3-yl)-2,3-dihydro-1H-inden-1-yl)oxy)phenyl)-3-hydroxyisothiazole 1-oxide] | < 300 nM |
| Cc1cncc(-c2cccc3c2CC[C@H]3Oc2ccc(-c3cc(O)n[s+]3[O-])cc2)c1 (stereo partly drawn) [Example 72, 5-(4-(((R)-4-(5-methylpyridin-3-yl)-2,3-dihydro-1H-inden-1-yl)oxy)phenyl)-3-hydroxyisothiazole 1-oxide] | < 300 nM |
| [O-][s+]1nc(O)cc1-c1ccc(O[C@@H]2CCc3c(-c4cncc(Cl)c4)cccc32)cc1 (stereo partly drawn) [Example 73, 5-(4-(((R)-4-(5-chloropyridin-3-yl)-2,3-dihydro-1H-inden-1-yl)oxy)phenyl)-3-hydroxyisothiazole 1-oxide] | < 300 nM |
| [O-][s+]1nc(O)cc1-c1ccc(O[C@@H]2CCc3c(-c4ccc(Cl)nc4)cccc32)cc1 (stereo partly drawn) [Example 74, 5-(4-(((R)-4-(6-chloropyridin-3-yl)-2,3-dihydro-1H-inden-1-yl)oxy)phenyl)-3-hydroxyisothiazole 1-oxide] | < 300 nM |
| CC(C)c1ccc(-c2cccc3c2CC[C@H]3Oc2ccc(-c3cc(O)n[s+]3[O-])cc2)c(Cl)n1 (stereo partly drawn) [Example 76, 5-(4-(((R)-4-(6-isopropyl-2-chloropyridin-3-yl)-2,3-dihydro-1H-inden-1-yl)oxy)phenyl)-3-hydroxyisothiazole 1-oxide] | < 300 nM |
| NC(=O)c1ccc(-c2cccc3c2CC[C@H]3Oc2ccc(-c3cc(O)n[s+]3[O-])cc2)cn1 (stereo partly drawn) [Example 77, 5-((1R)-1-(4-(3-hydroxy-1-oxidoisothiazole-5-yl)phenoxy)-2,3-dihydro-1H-inden-4-yl)picolinamide] | < 300 nM |
| [O-][s+]1nc(O)cc1-c1ccc(O[C@@H]2CCc3c(-c4ccc(OCC5CC5)nc4)cccc32)cc1 (stereo partly drawn) [Example 78, 5-(4-(((R)-4-(6-(cyclopropylmethoxy)pyridin-3-yl)-2,3-dihydro-1H-inden-1-yl)oxy)phenyl)-3-hydroxyisothiazole 1-oxide] | < 300 nM |
| CC(=O)c1ccc(-c2cccc3c2CC[C@H]3Oc2ccc(-c3cc(O)n[s+]3[O-])cc2)s1 (stereo partly drawn) [Example 79, 1-(5-((1R)-1-(4-(3-hydroxy-1-oxidoisothiazol-5-yl)phenoxy)-2,3-dihydro-1H-inden-4-yl)thiophen-2-yl)ethanone] | < 300 nM |
| [O-][s+]1nc(O)cc1-c1ccc(O[C@@H]2CCc3c(-c4ccc(Cl)s4)cccc32)cc1 (stereo partly drawn) [Example 81, 5-(4-(((R)-4-(5-chlorothiophen-2-yl)-2,3-dihydro-1H-inden-1-yl)oxy)phenyl)-3-hydroxyisothiazole 1-oxide] | < 300 nM |

Further lines, results first:

| EC50 | Structure (SMILES) |
| --- | --- |
| 300 to 3000 nM | Cc1ccc(-c2cccc3c2CC[C@H]3Oc2ccc(-c3cc(O)n[s+]3[O-])cc2)c2ccccc12 (stereo partly drawn) [Example 50, 5-(4-(((R)-4-(4-methylnaphthalen-1-yl)-2,3-dihydro-1H-inden-1-yl)oxy)phenyl)-3-hydroxyisothiazole 1-oxide] |
| < 300 nM | COc1cc(F)ccc1-c1cccc2c1CC[C@H]2Oc1ccc(-c2cc(O)n[s+]2[O-])cc1 (stereo partly drawn) [Example 51, 5-(4-(((R)-4-(4-fluoro-2-methoxyphenyl)-2,3-dihydro-1H-inden-1-yl)oxy)phenyl)-3-hydroxyisothiazole 1-oxide] |
| < 300 nM | COc1ccc(F)c(-c2cccc3c2CC[C@H]3Oc2ccc(-c3cc(O)n[s+]3[O-])cc2)c1 (stereo partly drawn) [Example 53, 5-(4-(((R)-4-(2-fluoro-5-methoxyphenyl)-2,3-dihydro-1H-inden-1-yl)oxy)phenyl)-3-hydroxyisothiazole 1-oxide] |
| 300 to 3000 nM | COc1ccc(Cl)cc1-c1cccc2c1CC[C@H]2Oc1ccc(-c2cc(O)n[s+]2[O-])cc1 (stereo partly drawn) [Example 55, 5-(4-(((R)-4-(5-chloro-2-methoxyphenyl)-2,3-dihydro-1H-inden-1-yl)oxy)phenyl)-3-hydroxyisothiazole 1-oxide] |
| < 300 nM | COc1ccc(F)cc1-c1cccc2c1CC[C@H]2Oc1ccc(-c2cc(O)n[s+]2[O-])cc1 (stereo partly drawn) [Example 56, 5-(4-(((R)-4-(5-fluoro-2-methoxyphenyl)-2,3-dihydro-1H-inden-1-yl)oxy)phenyl)-3-hydroxyisothiazole 1-oxide] |
| < 300 nM | COc1cccc(-c2cccc3c2CC[C@H]3Oc2ccc(-c3cc(O)n[s+]3[O-])cc2)c1F (stereo partly drawn) [Example 59, 5-(4-(((R)-4-(2-fluoro-3-methoxyphenyl)-2,3-dihydro-1H-inden-1-yl)oxy)phenyl)-3-hydroxyisothiazole 1-oxide] |
| 300 to 3000 nM | [O-][s+]1nc(O)cc1-c1ccc(O[C@@H]2CCc3c(-c4ccc(F)cc4OCc4ccccc4)cccc32)cc1 (stereo partly drawn) [Example 61, 5-(4-(((R)-4-(2-benzyloxy-4-fluorophenyl)-2,3-dihydro-1H-inden-1-yl)oxy)phenyl)-3-hydroxyisothiazole 1-oxide] |
| 300 to 3000 nM | [O-][s+]1nc(O)cc1-c1ccc(O[C@@H]2CCc3c(-c4cccc(C(F)(F)F)c4)cccc32)cc1 (stereo partly drawn) [Example 63, 5-(4-(((R)-4-(3-trifluoromethylphenyl)-2,3-dihydro-1H-inden-1-yl)oxy)phenyl)-3-hydroxyisothiazole 1-oxide] |
| < 300 nM | [O-][s+]1nc(O)cc1-c1ccc(O[C@@H]2CCc3c(-c4ccccc4C(F)(F)F)cccc32)cc1 (stereo partly drawn) [Example 64, 5-(4-(((R)-4-(2-trifluoromethylphenyl)-2,3-dihydro-1H-inden-1-yl)oxy)phenyl)-3-hydroxyisothiazole 1-oxide] |
| < 300 nM | [O-][s+]1nc(O)cc1-c1ccc(O[C@@H]2CCc3c(-c4ccccc4OC(F)(F)F)cccc32)cc1 (stereo partly drawn) [Example 65, 5-(4-(((R)-4-(2-trifluoromethoxyphenyl)-2,3-dihydro-1H-inden-1-yl)oxy)phenyl)-3-hydroxyisothiazole 1-oxide] |
| < 300 nM | [O-][s+]1nc(O)cc1-c1ccc(O[C@@H]2CCc3c(-c4cc(F)ccc4C(F)(F)F)cccc32)cc1 (stereo partly drawn) [Example 66, 5-(4-(((R)-4-(5-fluoro-2-trifluoromethylphenyl)-2,3-dihydro-1H-inden-1-yl)oxy)phenyl)-3-hydroxyisothiazole 1-oxide] |
| < 300 nM | [O-][s+]1nc(O)cc1-c1ccc(O[C@@H]2CCc3c(-c4cc(C(F)(F)F)ccc4F)cccc32)cc1 (stereo partly drawn) [Example 67, 5-(4-(((R)-4-(2-fluoro-5-trifluoromethylphenyl)-2,3-dihydro-1H-inden-1-yl)oxy)phenyl)-3-hydroxyisothiazole 1-oxide] |
| 300 to 3000 nM | [O-][s+]1nc(O)cc1-c1ccc(O[C@@H]2CCc3c(-c4cc(C(F)(F)F)ccc4Cl)cccc32)cc1 (stereo partly drawn) [Example 68, 5-(4-(((R)-4-(2-chloro-5-trifluoromethylphenyl)-2,3-dihydro-1H-inden-1-yl)oxy)phenyl)-3-hydroxyisothiazole 1-oxide] |
| 300 to 3000 nM | [O-][s+]1nc(O)cc1-c1ccc(O[C@@H]2CCc3c(-c4ccc(Cl)cc4C(F)(F)F)cccc32)cc1 (stereo partly drawn) [Example 69, 5-(4-(((R)-4-(4-chloro-2-trifluoromethylphenyl)-2,3-dihydro-1H-inden-1-yl)oxy)phenyl)-3-hydroxyisothiazole 1-oxide] |
| < 300 nM | CS(=O)(=O)c1ccccc1-c1cccc2c1CC[C@H]2Oc1ccc(-c2cc(O)n[s+]2[O-])cc1 (stereo partly drawn) [Example 70, 5-(4-(((R)-4-(2-(methylsulfonyl)phenyl)-2,3-dihydro-1H-inden-1-yl)oxy)phenyl)-3-hydroxyisothiazole 1-oxide] |
